For this test, the system named is blood myostatin. The test can be described thus: Effect of compound A on blood myostatin in NAFLD patients, oral administration for 72 weeks versus placebo. It is filed as in vivo, human. The conditions noted are these: 0.4 mg per day oral (0.2-mg tablet twice a day). As to the method: An effect on blood myostatin at the time of the oral administration of 0.4 mg per day of the compound A (a 0.2-mg tablet of the compound A was administered twice a day at the time of fasting) to a patient of a nonalcoholic fatty liver disease (NAFLD) for 72 weeks was investigated by comparison to the administration of a placebo. […] It was clear from FIG. 1 that the administration of the compound A reduced the fasting blood myostatin concentration at 12 weeks and 72 weeks from the administration in a stepwise manner as compared to the placebo administration.

Molecules are shown by their SMILES.

Consider `CC[C@@H](Oc1cccc(CN(CCCOc2ccc(OC)cc2)c2nc3ccccc3o2)c1)C(=O)O` [Compound A, (R)-2-[3-[[N-(benzoxazol-2-yl)-N-3-(4-methoxyphenoxy)propyl]aminomethyl]phenoxy]butyric acid], for which the “fasting blood myostatin concentration, change from baseline as compared to placebo” value by setting is: (12 weeks after start of administration) “reduced”; (72 weeks after start of administration) “reduced”.

(Values after US20260124181A1, “AGENT FOR REDUCING BLOOD MYOSTATIN LEVEL” (KOWA COMPANY, LTD., priority 2022, published 2026).)
